The test system of test [1] is Rattus norvegicus. The test can be described thus: Antiallergic activity in rat assessed as inhibition of ovalbumin-induced passive cutaneous anaphylaxis at 0.5 mg/kg, iv dosed along with ovalbumin challenge relative to control. It is filed as functional.
The subject of test [2] is Rattus norvegicus. The test can be described thus: Antiallergic activity in rat assessed as inhibition of ovalbumin-induced passive cutaneous anaphylaxis at 5 mg/kg, iv dosed along with ovalbumin challenge relative to control. It is filed as functional.
The test system of test [3] is Rattus norvegicus. The test can be described thus: Antiallergic activity in iv dosed rat assessed as inhibition of ovalbumin-induced passive cutaneous anaphylaxis dosed along with ovalbumin challenge. The class given is functional. Conditions: read-out: ID50 (the source's name).
The test system of test [4] is Rattus norvegicus. The test can be described thus: Antiallergic activity in po dosed rat assessed as inhibition of antigen-induced passive cutaneous anaphylaxis. The class given is functional.
The next test is filed under the species Cavia porcellus. The test can be described thus: Antagonist activity at histamine receptor in guinea pig ileum assessed as reduction in histamine-induced contractions up to 0.1 mM. It is filed as tissue-based.
Test [5] concerns Rattus norvegicus. The test can be described thus: Antiallergic activity in iv dosed rat assessed as inhibition of antigen-induced passive cutaneous anaphylaxis. It is filed as functional.
For test [6], the system named is Rattus norvegicus. The test can be described thus: Antiallergic activity in po dosed rat assessed as inhibition of ovalbumin-induced passive cutaneous anaphylaxis pretreated for 10 to 15 mins followed by ovalbumin challenge. It is filed as functional. Conditions: for ED50: read-out: ID50 (the source's name).

Active and inactive are the calls of the source. No cut-off for these calls is given here.

10 compounds from ChEMBL document CHEMBL3227979, “11-Oxo-11H-pyrido[2,1-b]quinazoline-8-carboxylic acid, an orally active antiallergy agent” (1979) can be followed below.

In the case of `Cc1cc(=O)n2cc(C(=O)O)ccc2n1`, in the test on Rattus norvegicus [1], the inhibition result was “inactive”.
With `O=C(O)c1cccn2c(=O)c3cc4ccccc4cc3nc12`, in the test on Rattus norvegicus [1], the inhibition entry is “inactive”.
Consider `O=C(O)c1ccc2nc(O)cc(=O)n2c1`, for which the inhibition in vivo at 5 mg/kg in the test with Rattus norvegicus [2] worked out at 26%.
For the compound `O=C(O)c1ccc2nc3cc4ccccc4cc3c(=O)n2c1`, the ED50 with Rattus norvegicus [3] is 0.1 mg/kg; in the test with Rattus norvegicus [4], below 0.1 mg/kg; with Rattus norvegicus [5], 0.015 mg/kg. Further, in the test with Rattus norvegicus [1], the inhibition in vivo at 0.5 mg/kg came out at 100%. In the test listed under Cavia porcellus, the inhibition entry was “inactive”. The ID50 entry in the test with Rattus norvegicus [6] was “inactive”.
`O=C(O)c1ccc2nc3c(c(=O)n2c1)CCCC3`: in the test with Rattus norvegicus [1], the inhibition result was “inactive”.
With `O=C(O)c1cccn2c(=O)c3ccccc3nc12`, the inhibition result in the test with Rattus norvegicus [1] is “inactive”.
As for `O=C([O-])c1cc(=O)c2c(OCC(O)COc3cccc4oc(C(=O)[O-])cc(=O)c34)cccc2o1.[Na+].[Na+]` [CROMOLYN SODIUM], in the test on Rattus norvegicus [3], the ED50 worked out at 1 mg/kg. For the same compound, the ID50 result in the test with Rattus norvegicus [6] is “inactive”.
As to `O=C(O)c1ccn2c(=O)c3ccccc3nc2c1`, the inhibition in vivo at 0.5 mg/kg in the test on Rattus norvegicus [1] turned out to be 21%.
Take `O=C1c2ccccc2S(=O)(=O)c2cc(-c3nn[nH]n3)ccc21` [DOXANTRAZOLE]: the ED50 with Rattus norvegicus [3] is 1.5 mg/kg; in the test on Rattus norvegicus [6], 5 mg/kg.
On to `Cl.O=C(O)c1ccc2nc3ccccc3c(=O)n2c1`, for which the figures for the ED50 with Rattus norvegicus [3] and in the test on Rattus norvegicus [6] were 0.5 mg/kg and 2.5 mg/kg, respectively. In the test with Rattus norvegicus [1], the inhibition in vivo at 0.5 mg/kg was found to be 45%. Besides, the inhibition result in the test filed under Cavia porcellus is “inactive”.
